Entries after “also recorded” stand apart in the source; their conditions may differ. Where two headings read alike, the source gives them in different places.
How the values were obtained:
Er [1] = system: Er; parameters: method as in PMID 12651187; conditions: carp; cited from earlier work
[2] = molecular target: T1, Atlantic cod androgen receptor alpha (gmAra) LBD (Gadus morhua, UniProt D5FIC7); test: Luciferase reporter gene assay, gmAra antagonism (antiandrogenic activity), coexposure with 5 nM testosterone; assay type: cell-based
T1 sequence (D5FIC7 409-718): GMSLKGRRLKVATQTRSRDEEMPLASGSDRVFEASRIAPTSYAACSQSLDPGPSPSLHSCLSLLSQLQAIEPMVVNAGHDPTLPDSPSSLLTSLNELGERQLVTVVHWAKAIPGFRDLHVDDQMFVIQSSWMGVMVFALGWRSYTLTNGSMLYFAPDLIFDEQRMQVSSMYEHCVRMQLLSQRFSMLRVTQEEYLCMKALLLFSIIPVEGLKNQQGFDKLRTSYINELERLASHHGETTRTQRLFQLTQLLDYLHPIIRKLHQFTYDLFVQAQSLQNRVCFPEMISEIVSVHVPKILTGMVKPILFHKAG
Description: (§1) Ligand activation of gmEra and gmAra was studied with a luciferase reporter gene assay in COS-7 cells transiently transfected with the pCMX-GAL4(DBD)-gmEra(LBD) or pCMX-GAL4(DBD)-gmAra(LBD) plasmid by using the TransIT-LT1 reagent (TransIT-LT1 Transfection Reagent, Mirus). Cells were seeded into 96-well plates (5000 cells/well) and incubated for 24 h before cotransfection with the plasmid mixture (100 ng/well). The plasmid mixture contained GAL4-UAS luciferase reporter plasmid (tk-(MH100)x4 luc), the pCMX-GAL4(DBD)-gmEra(LBD) or pCMX-GAL4(DBD)-gmAra(LBD) receptor plasmids (2:1 reporter:receptor plasmid mass ratio), and a plasmid constitutively producing the β-galactosidase enzyme used for normalization of transfection efficiency (pCMV- β-Gal). […] The maximum DMSO/methanol concentrations in the exposure wells were 0.5% (v/v) in DMEM medium without phenol red (Sigma-Aldrich). After exposure, cells were lysed, and luciferase and beta-galactosidase activities were measured as luminescence and absorbance (420 nm) after the addition of luciferin and ONPG substrates, respectively, using an Enspire Multimode plate reader (PerkinElmer, Waltham, Massachusetts, USA).
(§2) The dose–response curves were created using nonlinear regression and the four-parameter logistic fit in Graphpad Prism v.9. *p < 0.05 versus solvent control by ANOVA and Dunnett’s multiple comparison post hoc test.

[3] = molecular target: T2, Atlantic cod estrogen receptor alpha (gmEra) LBD (Gadus morhua, UniProt U5ILH7); test: Luciferase reporter gene assay, gmEra agonism (estrogenic activity) in transfected COS-7 cells
T2 sequence (U5ILH7 170-455): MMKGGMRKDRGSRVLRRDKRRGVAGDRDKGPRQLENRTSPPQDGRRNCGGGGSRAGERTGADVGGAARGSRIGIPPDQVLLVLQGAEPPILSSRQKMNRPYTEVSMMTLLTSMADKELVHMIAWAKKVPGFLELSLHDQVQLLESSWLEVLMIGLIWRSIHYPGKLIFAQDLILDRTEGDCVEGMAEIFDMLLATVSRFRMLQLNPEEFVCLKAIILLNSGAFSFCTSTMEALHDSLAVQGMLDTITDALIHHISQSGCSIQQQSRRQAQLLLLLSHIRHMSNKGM
Description: as §1
Luciferase reporter gene assays were established with COS-7 cells transiently producing the LBD of gmEra (Figure S1) for evaluating the estrogenic potential of 12 bisphenols.
COS-7 cells transiently transfected with gmEra-LBD were exposed to EE2 (open circles), BPA (black circles), and 11 different BPA analogs (red squares and as indicated) at increasing concentrations. Responses are presented as mean fold activation in luciferase activity in comparison to solvent-exposed cells ± SEM from three independent experiments with three technical replicates (n = 9). The dose–response curves were created using nonlinear regression and the four parameter logistic fit in Graphpad Prism v.9. For comparison, the dose–response curve of BPA (black line) is indicated together with each individual BP tested (red line). *p < 0.05 versus solvent control by one-way ANOVA and Dunnett’s multiple comparison post hoc test.

[4] = molecular target: T2, Atlantic cod estrogen receptor alpha (gmEra) LBD; test: Luciferase reporter gene assay, gmEra antagonism (antiestrogenic activity), coexposure with 3 nM EE2; assay type: cell-based; conditions: coexposure with EE2 (3 nM, EC20)
Description: as §1
To investigate potential antiestrogenic effects, COS-7 cells transiently expressing gmEra LBD were exposed to the 12 bisphenols in binary mixtures with a fixed concentration of EE2 (3 nM, corresponding to EC20) (Figure 2 and Table 1).
as §2

[5] = molecular target: T1, Atlantic cod androgen receptor alpha (gmAra) LBD; test: Luciferase reporter gene assay, gmAra agonism (androgenic activity) in transfected COS-7 cells
Description: as §1
Figure 3 Androgenic activity of bisphenols. COS-7 cells were transiently transfected with gmAra LBD and exposed individually to 12 bisphenol analogs at increasing concentrations. […] The dose–response curves were created using nonlinear regression and the four-parameter logistic fit in Graphpad Prism v.9. For comparison, the dose–response curve of BPA (black line) is indicated together with each individual BP tested (red line). *p < 0.05 versus solvent control by one-way ANOVA and Dunnett’s multiple comparison post hoc test.

human Era = system: human Era; parameters: method as in PMID 15635150; conditions: cited from earlier work
Er [6] = system: Er; parameters: method as in doi:10.11403/jset.11.133; conditions: medaka; cited from earlier work

CC(C)(c1ccc(O)cc1)c1ccc(O)cc1 [BPA, Bisphenol A]
EC50 (Er [1]): 26000 nM | effect on testosterone-mediated gmAra activity, result in words ([2]; BPs 0.003–50 μM with 5 nM testosterone): significantly decrease the testosterone-mediated Ara-activity | IC50 ([2]; gmAra IC50, in the presence of 5 nM testosterone (EC20)): 140 nM | maximal fold induction ([3]; COS-7, monkey, 24 h, read-out: gmEra Emax): 19.4 | gmEra Emax ([3]; fold activation in luciferase activity vs solvent control, 24 h exposure, * = statistically significant, a = plateau not reached, highest fold activation obtained, 1440 min): 19 fold activation | EC50 ([3]; gmEra EC50, four-parameter logistic fit, 24 h exposure): 1900 nM | gmEra REP50 (relative potency EC50, EC50-bisphenol A/EC50-bisphenol X) ([3]; relative to BPA): 1.0 | antiestrogenic effect on gmEra, result in words [4]: did not antagonize gmEra; also recorded: no antiestrogenic effects | EC50 [5]: 25700 nM | maximal fold induction ([5]; COS-7, monkey, 24 h, read-out: gmAra Emax): 1.6 | gmAra REP50 (relative potency EC50, EC50-bisphenol A/EC50-bisphenol X) ([5]; relative to BPA): 1.0 | EC50 (human Era): 630 nM | EC50 (Er [6]): 590 nM

— article PMC11325555, “Interaction of Bisphenol A and Its Analogs with Estrogen and Androgen Receptor from Atlantic Cod (Gadus morhua)” (Environmental Science & Technology, 2024)
